Experimental data taken from patent publication US10765114B2, “4-amino-6-(pyridyl and 2-substitutedphenyl)-picolinates and 6-amino-2-(pyridyl and 2-substitutedphenyl)-pyrimidine-4-carboxylates and their use as herbicides” (Dow AgroSciences LLC, priority 2013, dated 2020).

Key:
[1] = tested on: SETVI (green foxtail); experiment: Post-Emergent Test III (Wheat and Barley); format: in vivo, Setaria viridis; conditions: for pest or weed control at 35 g/ha / pest or weed control at 70 g/ha / pest or weed control at 140 g/ha: Setaria viridis, post-emergence, 504 h, postemergence, read-out: Visual Growth Reduction (%) 21 Days After Application, SETVI; for pest or weed control at 35 g/ha: 35 g ai/ha; for pest or weed control at 70 g/ha: 70 g ai/ha; for pest or weed control at 140 g/ha: 140 g ai/ha; for GR50, SETVI: effective dose for growth reduction of 50 percent; for GR50, SETVI / GR80, SETVI: probit analysis; for GR80, SETVI: effective dose for growth reduction of 80 percent
Method: (§1) Seeds of the desired test plant species were planted in Sun Gro MetroMix® 306 planting mixture, which typically has a pH of 6.0 to 6.8 and an organic matter content of about 30 percent, in plastic pots with a surface area of 103.2 square centimeters (cm^2). When required to ensure good germination and healthy plants, a fungicide treatment and/or other chemical or physical treatment was applied. The plants were grown for 7-36 days in a greenhouse with an approximate 14 h photoperiod which was maintained at about 18° C. during the day and 17° C. during the night. Nutrients and water were added on a regular basis and supplemental lighting was provided with overhead metal halide 1000-Watt lamps as necessary. The plants were employed for testing when they reached the second or third true leaf stage.
(§2) A weighed amount, determined by the highest rate to be tested, of each test compound was placed in a 25 mL glass vial and was dissolved in 4 mL of a 97:3 v/v mixture of acetone and DMSO to obtain concentrated stock solutions. […] The concentrated stock solutions obtained were diluted with 20 mL of an aqueous mixture containing acetone, water, isopropyl alcohol, DMSO, Agri-Dex crop oil concentrate, and X-77 surfactant in a 48:39:10:1.5:1.5:0.02 v/v ratio to obtain spray solutions containing the highest application rates. Additional application rates were obtained by serial dilution of 12 mL of the high rate solution into a solution containing 2 mL of 97:3 v/v mixture of acetone and DMSO and 10 mL of an aqueous mixture containing acetone, water, isopropyl alcohol, DMSO, Agri-Dex crop oil concentrate, and X-77 surfactant in a 48:39:10:1.5:1.5:0.02 v/v ratio to obtain ½×, ¼×, ⅛× and 1/16× rates of the high rate. Compound requirements are based upon a 12 mL application volume at a rate of 187 liters per hectare (L/ha). Formulated compounds were applied to the plant material with an overhead Mandel track sprayer equipped with 8002E nozzles calibrated to deliver 187 L/ha over an application area of 0.503 square meters at a spray height of 18 inches (43 cm) above the average plant canopy height. Control plants were sprayed in the same manner with the solvent blank.
(§3) The treated plants and control plants were placed in a greenhouse as described above and watered by subirrigation to prevent wash-off of the test compounds. After 21 dAYS, the condition of the test plants as compared with that of the untreated plants was determined visually and scored on a scale of 0 to 100 percent where 0 corresponds to no injury and 100 corresponds to complete kill and presented as indicated in Table A.
(§4) By applying the well-accepted probit analysis as described by J. Berkson in Journal of the American Statistical Society, 48, 565 (1953) and by D. Finney in “Probit Analysis” Cambridge University Press (1952), herbicidal injury of a specific compound at various rates can be used to calculate GR10, GR20, GR50, GR80 and GR90 values, which are defined as growth reduction factors that correspond to the effective dose of herbicide required to provide plant growth reduction (GR) of 10 percent, 20 percent, 50 percent, 80 percent and 90 percent, respectively. Probit analysis was applied to data collected from multiple dose rates of individual compounds utilizing the procedures explained in the following examples. The analysis of those dose rates is captured in the following tables.

[2] = tested on: LAMPU (purple deadnettle); experiment: Post-Emergent Test III (Wheat and Barley); format: in vivo, Lamium purpureum; conditions: for Visual Growth Reduction (%) 21 Days After Application, LAMPU: LAMPU purple deadnettle (Lamium purpureum), post-emergent
Method: as §1, §2, §3, §4

[3] = tested on: VERPE (Persian speedwell); experiment: Post-Emergent Test III (Wheat and Barley); format: in vivo, Veronica persica; conditions: for Visual Growth Reduction (%) 21 Days After Application, VERPE: VERPE bird's-eye speedwell (Veronica persica), post-emergent
Method: as §1, §2, §3, §4

[4] = tested on: test plant species in Wheat and Barley; experiment: Post-Emergent Test III (Wheat and Barley), further species of Table 9; format: in vivo; conditions: for Visual Growth Reduction (%) 21 Days After Application, CHEAL: CHEAL lambsquarters (Chenopodium album); for Visual Growth Reduction (%) 21 Days After Application, CHEAL / Visual Growth Reduction (%) 21 Days After Application, GALAP / Visual Growth Reduction (%) 21 Days After Application, STEME / Visual Growth Reduction (%) 21 Days After Application, VIOTR: post-emergent; for Visual Growth Reduction (%) 21 Days After Application, GALAP: GALAP cleavers (Galium aparine); for Visual Growth Reduction (%) 21 Days After Application, STEME: STEME common chickweed (Stellaria media); for Visual Growth Reduction (%) 21 Days After Application, VIOTR: VIOTR wild pansy (Viola tricolor)
Method: as §1, §2, §3, §4

COC(=O)c1nc(-c2ccc(Cl)c(F)c2OC)cc(N)c1Cl [Compound 20]
pest or weed control at 35 g/ha [1]: 0 to 29%
pest or weed control at 70 g/ha [1]: 60 to 74%
pest or weed control at 140 g/ha [1]: 60 to 74%
GR50, SETVI [1]: 80 g ai/ha
GR80, SETVI [1]: >140 g ai/ha

COC(=O)c1nc(-c2ccc(Br)nc2)c(F)c(N)c1Cl [Compound 22, methyl 4-amino-6′-bromo-5-chloro-3-fluoro-[2,3′-bipyridine]-6-carboxylate]
Visual Growth Reduction (%) 21 Days After Application, LAMPU ([2]; 17.5 g ai/ha): A (95-100)
Visual Growth Reduction (%) 21 Days After Application, LAMPU ([2]; 35 g ai/ha): A (95-100)
Visual Growth Reduction (%) 21 Days After Application, LAMPU ([2]; 70 g ai/ha): A (95-100)
GR50, LAMPU ([2]; LAMPU, growth reduction of 50%, probit analysis, 21 days): 1 g ai/ha
GR80, LAMPU ([2]; LAMPU, growth reduction of 80%, probit analysis, 21 days): 6 g ai/ha
GR90, LAMPU ([2]; LAMPU, growth reduction of 90%, probit analysis, 21 days): 11 g ai/ha
Visual Growth Reduction (%) 21 Days After Application, VERPE ([3]; 17.5 g ai/ha): D (60-74)
Visual Growth Reduction (%) 21 Days After Application, VERPE ([3]; 35 g ai/ha): C (75-84)
Visual Growth Reduction (%) 21 Days After Application, VERPE ([3]; 70 g ai/ha): A (95-100)
GR50, VERPE ([3]; VERPE, growth reduction of 50%, probit analysis, 21 days): 9 g ai/ha
GR80, VERPE ([3]; VERPE, growth reduction of 80%, probit analysis, 21 days): 28 g ai/ha
GR90, VERPE ([3]; VERPE, growth reduction of 90%, probit analysis, 21 days): 50 g ai/ha
Visual Growth Reduction (%) 21 Days After Application, CHEAL ([4]; 17.5 g ai/ha): A (95-100)
Visual Growth Reduction (%) 21 Days After Application, CHEAL ([4]; 35 g ai/ha): A (95-100)
Visual Growth Reduction (%) 21 Days After Application, CHEAL ([4]; 70 g ai/ha): A (95-100)
GR50, CHEAL ([4]; CHEAL, growth reduction of 50%, probit analysis, 21 days): 2 g ai/ha
GR80, CHEAL ([4]; CHEAL, growth reduction of 80%, probit analysis, 21 days): 6 g ai/ha
GR90, CHEAL ([4]; CHEAL, growth reduction of 90%, probit analysis, 21 days): 11 g ai/ha
Visual Growth Reduction (%) 21 Days After Application, GALAP ([4]; 17.5 g ai/ha): D (60-74)
Visual Growth Reduction (%) 21 Days After Application, GALAP ([4]; 35 g ai/ha): B (85-94)
Visual Growth Reduction (%) 21 Days After Application, GALAP ([4]; 70 g ai/ha): A (95-100)
GR50, GALAP ([4]; GALAP, growth reduction of 50%, probit analysis, 21 days): 11 g ai/ha
GR80, GALAP ([4]; GALAP, growth reduction of 80%, probit analysis, 21 days): 24 g ai/ha
GR90, GALAP ([4]; GALAP, growth reduction of 90%, probit analysis, 21 days): 36 g ai/ha
Visual Growth Reduction (%) 21 Days After Application, STEME ([4]; 17.5 g ai/ha): F (30-44)
Visual Growth Reduction (%) 21 Days After Application, STEME ([4]; 35 g ai/ha): E (45-59)
Visual Growth Reduction (%) 21 Days After Application, STEME ([4]; 70 g ai/ha): D (60-74)
GR50, STEME ([4]; STEME, growth reduction of 50%, probit analysis, 21 days): 28 g ai/ha
GR80, STEME ([4]; STEME, growth reduction of 80%, probit analysis, 21 days): >140 g ai/ha
GR90, STEME ([4]; STEME, growth reduction of 90%, probit analysis, 21 days): >140 g ai/ha
Visual Growth Reduction (%) 21 Days After Application, VIOTR ([4]; 17.5 g ai/ha): A (95-100)
Visual Growth Reduction (%) 21 Days After Application, VIOTR ([4]; 35 g ai/ha): A (95-100)
Visual Growth Reduction (%) 21 Days After Application, VIOTR ([4]; 70 g ai/ha): A (95-100)
GR50, VIOTR ([4]; VIOTR, growth reduction of 50%, probit analysis, 21 days): 4 g ai/ha
GR80, VIOTR ([4]; VIOTR, growth reduction of 80%, probit analysis, 21 days): 7 g ai/ha
GR90, VIOTR ([4]; VIOTR, growth reduction of 90%, probit analysis, 21 days): 9 g ai/ha

Nc1c(Cl)c(C(=O)O)nc(-c2ccc(C(F)(F)F)nc2)c1Cl [Compound 33]
pest or weed control at 35 g/ha [1]: 45 to 59%
pest or weed control at 70 g/ha [1]: 60 to 74%
pest or weed control at 140 g/ha [1]: 60 to 74%
GR50, SETVI [1]: 48 g ai/ha
GR80, SETVI [1]: >140 g ai/ha

Nc1c(F)c(-c2ccc(C3CC3)nc2)nc(C(=O)O)c1Cl [Compound 36, 4-amino-5-chloro-6′-cyclopropyl-3-fluoro-[2,3′-bipyridine]-6-carboxylic acid]
pest or weed control at 35 g/ha [1]: 30 to 44%
pest or weed control at 70 g/ha [1]: 45 to 59%
GR50, SETVI [1]: 59 g ai/ha
GR80, SETVI [1]: >140 g ai/ha

COC(=O)c1nc(-c2ccc(Cl)c(F)c2OC)c(F)c(N)c1Cl [Compound 39, methyl 4-amino-3-chloro-6-(4-chloro-3-fluoro-2-methoxyphenyl)-5-fluoropicolinate]
pest or weed control at 35 g/ha [1]: 0 to 29%
pest or weed control at 70 g/ha [1]: 0 to 29%
pest or weed control at 140 g/ha [1]: 45 to 59%
GR50, SETVI [1]: >140 g ai/ha
GR80, SETVI [1]: >140 g ai/ha

COC(=O)c1nc(-c2ccc(C3CC3)nc2)c(F)c(N)c1Cl [Compound 49]
pest or weed control at 35 g/ha [1]: 30 to 44%
pest or weed control at 70 g/ha [1]: 95 to 100%
pest or weed control at 140 g/ha [1]: 95 to 100%
GR50, SETVI [1]: 28 g ai/ha
GR80, SETVI [1]: 57 g ai/ha

Cc1c(-c2ccc(C(F)(F)F)nc2)nc(C(=O)O)c(Cl)c1N [Compound 51, 4-amino-5-chloro-3-methyl-6′-(trifluoromethyl)-[2,3′-bipyridine]-6-carboxylic acid]
pest or weed control at 35 g/ha [1]: 75 to 84%
pest or weed control at 70 g/ha [1]: 85 to 94%
GR50, SETVI [1]: 26 g ai/ha
GR80, SETVI [1]: 47 g ai/ha

COC(=O)c1nc(-c2ccc(C(F)(F)F)nc2)c(F)c(N)c1Cl [Compound 59, methyl 4-amino-5-chloro-3-fluoro-6′-(trifluoromethyl)-[2,3′-bipyridine]-6-carboxylate]
pest or weed control at 35 g/ha [1]: 45 to 59%
pest or weed control at 70 g/ha [1]: 85 to 94%
GR50, SETVI [1]: 34 g ai/ha
GR80, SETVI [1]: 61 g ai/ha

Nc1c(F)c(-c2ccc(OC(F)F)nc2)nc(C(=O)O)c1Cl [Compound 66]
pest or weed control at 35 g/ha [1]: 30 to 44%
pest or weed control at 70 g/ha [1]: 60 to 74%
pest or weed control at 140 g/ha [1]: 75 to 84%
GR50, SETVI [1]: 49 g ai/ha
GR80, SETVI [1]: 112 g ai/ha

COC(=O)c1nc(-c2ccc(OC(F)F)nc2)c(F)c(N)c1Cl [Compound 71]
pest or weed control at 35 g/ha [1]: 30 to 44%
pest or weed control at 70 g/ha [1]: 45 to 59%
pest or weed control at 140 g/ha [1]: 75 to 84%
GR50, SETVI [1]: 72 g ai/ha
GR80, SETVI [1]: >140 g ai/ha

COC(=O)c1nc(-c2ccc(C(F)(F)F)nc2)c(Cl)c(N)c1Cl [Compound 83]
pest or weed control at 35 g/ha [1]: 0 to 29%
pest or weed control at 70 g/ha [1]: 60 to 74%
GR50, SETVI [1]: 63 g ai/ha
GR80, SETVI [1]: 139 g ai/ha
